Measured values reported in US8536354B2, “Steroidal ligands and their use in gene switch modulation” (Intrexon Corporation, priority 2008, dated 2013).
Read-outs that look alike come from different tables or passages of the source.

Legend:
[1] = target: wild-type Aedes aegypti EcR (AaEcR; GAL4-EcR DEF with VP16-RXR-USP chimera) (Aedes aegypti, UniProt P49880); assay: Two-hybrid gene switch assay, luciferase reporter, wild-type AaEcR, mouse NIH3T3 cells; type: cell-based
[2] = target: T1, wild-type CfEcR (GAL4-CfEcR-DEF with VP16-RXR-USP chimera) (Choristoneura fumiferana, UniProt O77255); assay: Two-hybrid gene switch assay, luciferase reporter, wild-type CfEcR, mouse NIH3T3 cells
T1 sequence (O77255 219-541): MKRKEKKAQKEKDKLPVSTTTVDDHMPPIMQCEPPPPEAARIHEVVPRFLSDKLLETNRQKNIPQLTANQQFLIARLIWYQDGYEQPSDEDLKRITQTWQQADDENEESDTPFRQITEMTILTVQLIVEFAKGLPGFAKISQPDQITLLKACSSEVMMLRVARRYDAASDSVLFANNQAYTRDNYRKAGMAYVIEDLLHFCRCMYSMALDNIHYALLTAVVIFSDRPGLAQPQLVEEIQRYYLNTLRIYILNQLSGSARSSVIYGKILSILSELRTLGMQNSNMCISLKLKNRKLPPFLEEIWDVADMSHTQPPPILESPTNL
T1 sequence (P28702 1-533 partner): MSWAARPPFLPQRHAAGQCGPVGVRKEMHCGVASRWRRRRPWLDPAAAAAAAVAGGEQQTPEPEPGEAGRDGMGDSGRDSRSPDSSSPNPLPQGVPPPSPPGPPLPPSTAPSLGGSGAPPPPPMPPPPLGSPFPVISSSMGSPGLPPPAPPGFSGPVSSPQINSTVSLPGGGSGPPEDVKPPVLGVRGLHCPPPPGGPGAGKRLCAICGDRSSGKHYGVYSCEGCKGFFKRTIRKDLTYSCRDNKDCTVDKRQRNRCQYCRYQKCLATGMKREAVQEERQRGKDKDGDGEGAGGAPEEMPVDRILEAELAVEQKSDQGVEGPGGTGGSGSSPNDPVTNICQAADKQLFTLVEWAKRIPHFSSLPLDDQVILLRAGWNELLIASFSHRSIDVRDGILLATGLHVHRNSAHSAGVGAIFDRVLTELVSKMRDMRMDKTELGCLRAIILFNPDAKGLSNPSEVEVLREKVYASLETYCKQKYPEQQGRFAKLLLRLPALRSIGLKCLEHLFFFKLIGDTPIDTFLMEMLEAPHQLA

[3] = target: T2, AmaEcR (GAL4-EcR DEF with VP16-RXR-USP chimera) (Amblyomma americanum, UniProt O44338); assay: Two-hybrid gene switch assay, luciferase reporter, AmaEcR, mouse NIH3T3 cells
T2 sequence (O44338 255-570): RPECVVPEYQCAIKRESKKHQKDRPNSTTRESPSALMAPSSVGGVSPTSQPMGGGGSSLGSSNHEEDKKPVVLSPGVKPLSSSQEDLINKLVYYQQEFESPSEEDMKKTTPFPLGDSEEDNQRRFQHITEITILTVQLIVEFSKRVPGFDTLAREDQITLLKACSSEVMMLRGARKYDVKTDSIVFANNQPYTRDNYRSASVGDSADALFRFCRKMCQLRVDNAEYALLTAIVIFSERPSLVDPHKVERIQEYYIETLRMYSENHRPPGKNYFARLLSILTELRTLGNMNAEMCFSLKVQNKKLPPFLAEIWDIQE
T2 sequence (P28702 1-533 partner): T1 sequence (P28702 1-533 partner)

[4] = FIG. 14A/14B, GAL4-EcR(DEF) with VP16-RXR-USP chimera, read-out: EC50
[5] = EC50, FIG. 14A/14B, GAL4-EcR(DEF) with VP16-RXR-USP chimera
[6] = EC50, FIG. 16, GAL4-EcR (DEF) / VP16-RXR-USP chimera

Chain of wild-type Aedes aegypti EcR (AaEcR; GAL4-EcR DEF with VP16-RXR-USP chimera) (P49880 with tags, fused parts or gaps limits assumed, change not shown): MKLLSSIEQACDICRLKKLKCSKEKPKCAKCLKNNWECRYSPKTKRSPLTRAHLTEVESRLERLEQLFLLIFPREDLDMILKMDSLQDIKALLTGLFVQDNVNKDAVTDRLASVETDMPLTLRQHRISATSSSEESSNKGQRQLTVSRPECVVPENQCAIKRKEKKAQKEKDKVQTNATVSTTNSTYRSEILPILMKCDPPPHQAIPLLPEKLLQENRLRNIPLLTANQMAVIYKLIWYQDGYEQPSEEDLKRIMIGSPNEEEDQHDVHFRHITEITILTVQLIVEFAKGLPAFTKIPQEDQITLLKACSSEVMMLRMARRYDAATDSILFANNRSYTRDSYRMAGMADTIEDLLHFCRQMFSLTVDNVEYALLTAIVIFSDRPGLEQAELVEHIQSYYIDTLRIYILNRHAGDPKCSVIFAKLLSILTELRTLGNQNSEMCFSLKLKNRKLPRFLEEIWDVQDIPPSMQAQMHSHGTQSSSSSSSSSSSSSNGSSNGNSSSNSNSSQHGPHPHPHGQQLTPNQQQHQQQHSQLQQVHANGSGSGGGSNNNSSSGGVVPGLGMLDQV

SMILES	EC50 [1, 4]	EC50 [2]	EC50 [3, 5]	EC50 [1, 5]	EC50 [1, 6]	EC50 ([2]; FIG. 15, CfEcR, GAL4-EcR (DEF) / VP16-RXR-USP chimera)	EC50 [3, 6]
CC(C)(O)CC[C@@H](OC(=O)c1ccc[nH]1)[C@](C)(O)[C@H]1CC[C@@]2(O)C3=CC(=O)[C@@H]4C[C@@H](O)[C@@H](O)C[C@]4(C)[C@H]3CC[C@]12C	~10 µM	> 33 µM	~5 µM	–	–	–	–
CC(=O)OCC(=O)O[C@H](CCC(C)(C)O)[C@](C)(O)[C@H]1CC[C@@]2(O)C3=CC(=O)[C@@H]4C[C@@H](O)[C@@H](O)C[C@]4(C)[C@H]3CC[C@]12C [20-hydroxyecdysone 22-acetoxyacetate]	~3.3 µM	> 33 µM	~3.3 µM	–	–	–	–
CC(C)(O)CC[C@@H](O)[C@](C)(O)[C@H]1CC[C@@]2(O)C3=CC(=O)[C@@H]4C[C@H]5OC(C)(C)O[C@H]5C[C@]4(C)[C@H]3CC[C@]12C [20-hydroxyecdysone-2,3-acetonide]	~15 µM	> 33 µM	~7 µM	–	–	–	–
C[C@@H](CO)CC[C@@H](O)[C@](C)(O)[C@H]1CC[C@@]2(O)C3=CC(=O)[C@@H]4C[C@@H](O)[C@@H](O)C[C@]4(C)[C@H]3CC[C@]12C [(25R)-inokosterone]	~2.5 µM	> 33 µM	~3.3 µM	–	–	–	–
C[C@H](CO)CC[C@@H](O)[C@](C)(O)[C@H]1CC[C@@]2(O)C3=CC(=O)[C@@H]4C[C@@H](O)[C@@H](O)C[C@]4(C)[C@H]3CC[C@]12C [(25S)-inokosterone]	~4 µM	> 33 µM	~3.3 µM	–	–	–	–
CC(C(O)CCC(C)(C)O)C1CCC2(O)C3=CC(=O)C4CC(O)CCC4(C)C3CCC12C (centres unmarked) [Compound 2-deoxyecdysone]	~10 µM	> 33 µM	~1 µM	–	–	–	–
CC(C)(O)CC[C@@H](O)[C@](C)(O)[C@H]1CC[C@@]2(O)C3=C[C@H](O)[C@@H]4C[C@@H](O)[C@@H](O)C[C@]4(C)[C@H]3CC[C@]12C [Compound 6a-hydroxy-20-hydroxyecdysone]	~12 µM	> 33 µM	10 µM	–	–	–	–
CC(C)(O)CC[C@@H](O)[C@](C)(O)[C@H]1CC[C@@]2(O)C3=C[C@@H](O)[C@@H]4C[C@@H](O)[C@@H](O)C[C@]4(C)[C@H]3CC[C@]12C [Compound 6b-hydroxy-20-hydroxyecdysone]	~6 µM	> 33 µM	~3.3 µM	–	–	–	–
CC(=O)O[C@H](CCC(C)(C)O)[C@](C)(O)[C@H]1CC[C@@]2(O)C3=CC(=O)[C@@H]4C[C@@H](O)[C@@H](O)C[C@]4(C)[C@H]3CC[C@]12C [Compound 20-hydroxyecdysone-22-acetate]	~2 µM	> 33 µM	~2 µM	–	–	–	–
CC(C)(O)CCC(=O)[C@](C)(O)[C@H]1CC[C@@]2(O)C3=CC(=O)[C@@H]4C[C@@H](O)[C@@H](O)C[C@]4(C)[C@H]3CC[C@]12C [Compound 22-dehydro-20-hydroxyecdysone]	~2 µM	> 33 µM	~7 µM	–	–	–	–
CC(C)(O)CC[C@@H](O)[C@](C)(O)[C@H]1CC[C@@]2(O)C3=CC(=O)[C@@H]4C[C@@H](O)[C@@H](O)C[C@]4(C)C3=CC[C@]12C [Compound 25-hydroxydacryhainansterone]	~5 µM	> 33 µM	~3.3 µM	–	–	–	–
CC(C)CC[C@@H](O)[C@](C)(O)[C@H]1CC[C@@]2(O)C3=CC(=O)[C@@H]4C[C@@H](O)[C@@H](O)C[C@]4(C)[C@H]3[C@H](O)C[C@]12C [ajugasterone C]	–	~20 µM	~0.2 µM	0.07 µM	–	–	–
CC(C)(O)C(CCC(C)(O)C1CCC2(O)C3=CC(=O)C4CC(O)C(O)CC4(C)C3CCC12C)OC(=O)c1ccc[nH]1 (centres unmarked) [canescensterone]	~0.2 µM	> 10 µM	~0.3 µM	–	–	–	–
CC1(C)OC(=O)C=C1CC(O)C(C)(O)C1CCC2(O)C3=CC(=O)C4CC(O)C(O)CC4(C)C3CCC12C (centres unmarked) [carthamosterone]	~15 µM	> 33 µM	~20 µM	–	–	–	–
C[C@@H]1C(=O)O[C@H](C)[C@H]1C[C@@H](O)[C@](C)(O)[C@H]1CC[C@@]2(O)C3=CC(=O)[C@@H]4C[C@@H](O)[C@@H](O)C[C@]4(C)[C@H]3CC[C@]12C [cyasterone]	3 µM	~1 µM	~0.3 µM	–	–	–	–
C[C@H]([C@H](O)CCC(C)(C)O)[C@H]1CC[C@@]2(O)C3=CC(=O)[C@@H]4C[C@@H](O)[C@@H](O)C[C@]4(C)[C@H]3CC[C@]12C [ecdysone]	–	> 33 µM	~7 µM	~15 µM	3.43 µM	> 33 µM	> 33 µM
CC(C)(O)CC[C@@H](O)[C@](C)(O)[C@H]1CC[C@@]2(O)C3=CC(=O)[C@@H]4C[C@@H](O)[C@@H](O)[C@@H](O)[C@]4(C)[C@H]3CC[C@]12C [integristerone A]	~10 µM	> 33 µM	~10 µM	–	–	–	–
CC(CC(O)C(C)(O)C1CCC2(O)C3=CC(=O)C4CC(O)C(O)CC4(C)C3CCC12C)C(C)(C)O (centres unmarked) [makisterone A]	3.33 µM	> 33 µM	1.4 µM	–	–	–	–
CCC(CC(O)C(C)(O)C1CCC2(O)C3=CC(=O)C4CC(O)C(O)CC4(C)C3CCC12C)C(C)(C)O (centres unmarked) [makisterone C]	1.02 µM	> 33 µM	~2 µM	–	–	–	–
CC(C)(O)CC[C@@H](O)[C@](C)(O)[C@H]1CC[C@@]2(O)C3=CC(=O)[C@]4(O)C[C@@H](O)[C@@H](O)C[C@]4(C)[C@H]3CC[C@]12C [polypodine B]	–	~20 µM	~3.3 µM	0.173 µM	0.05 µM	–	~0.3 µM
CC(C)=CC[C@@H](O)[C@](C)(O)[C@H]1CC[C@@]2(O)C3=CC(=O)[C@@H]4C[C@@H](O)[C@@H](O)C[C@]4(C)[C@H]3CC[C@]12C [stachysterone C]	–	~10 µM	~0.1 µM	0.044 µM	–	–	–
CCCCCC(=O)OC1CC2(C)C(C(C)(O)C(O)CCC(C)(C)O)CCC2(O)C2=CC(=O)C3CC(O)C(O)CC3(C)C21 (centres unmarked) [turkesterone-11 a -hexanoate]	–	> 33 µM	~10 µM	~12 µM	–	–	–
CCC(=O)OC1CC2(C)C(C(C)(O)C(O)CCC(C)(C)O)CCC2(O)C2=CC(=O)C3CC(O)C(O)CC3(C)C21 (centres unmarked) [turkesterone-11 a -propionate]	–	> 33 µM	~10 µM	~15 µM	–	–	–
CCCCCCCCCC(=O)OC1CC2(C)C(C(C)(O)C(O)CCC(C)(C)O)CCC2(O)C2=CC(=O)C3CC(O)C(O)CC3(C)C21 (centres unmarked) [turkesterone-11a-decanoate]	–	> 33 µM	> 33 µM	> 33 µM	–	–	–
CC(C)(O)CC[C@@H](O)[C@](C)(O)[C@H]1CC[C@@]2(O)C3=CC(=O)[C@@H]4C[C@@H](O)[C@@H](O)C[C@]4(C)[C@H]3[C@H](O)C[C@]12C [turkesterone]	–	> 33 µM	~10 µM	3.37 µM	–	–	–
